Results on 1 compound are retold here after patent US20160374975A1, “COMPOSITION FOR TREATMENT OF NAFLD” (Pronova BioPharma Norge AS, priority 2015, published 2016).

One series concerns HepG2 cells. The series is described as follows: Intracellular lipid accumulation in steatic HepG2 cells (in vitro model of NAFLD), oil red O staining, OD 490 nm. The following applies: steatic HepG2 cells treated with EPA/DHA, PCB 153 final concentration 50 μM, 24 hours at 37° C., versus DMSO alone. Format: cell-based, human. On the procedure:
Palmitic (C16:0) and oleic (C18:1) acids are the most abundant fatty acids in liver triglycerides in both normal subjects and patients with NAFLD. The human hepatocyte-derived cell line HepG2 cells were seeded in a 96 well plate at a density of 5000 cells/well on Day 1. […] Intracellular accumulation of lipids was detected and quantified by oil red O staining using spectrophotometry at wavelength 490 nm. Oil red O color intracellular lipids droplets after cell fixation with paraformaldehyde. Absence of cell death was confirmed using a colometric lactate dehydrogenase (LDH) assay. Lactate dehydrogenase (LDH) is a cytosolic enzyme present in many different types of cells. When the plasma membrane is damaged, LDH is released into cell culture media. The released LDH was quantified by a coupled enzymatic reaction using a LDH cytotoxicity kit, and following the procedure according to the manufacture's instruction.
To assess the effect of n-3 PUFA on experimental NAFLD, the HepG2cells were treated with EPA and DHA at a concentration of 100 μM (1:1), or with fatty acids-free bovine serum albumin (BSA), as a control, together with 1 mM Oleic/Palmitic acid for 24 hours. […] Intracellular accumulation of lipids was detected and quantified by oil red O staining using spectrophotometry at wavelength 490 nm. […]

The subject of the next series is male C57BL6/J mice. The following applies: PCB 153 exposure in high-fat-fed mice; not seen with HFD alone or PCB 153 alone; cited from earlier work.
The next series concerns mice. The note with it: HFD+PCB 153 treated mice compared with HFD treatment alone; cited from earlier work.

Consider `Clc1cc(Cl)c(-c2cc(Cl)c(Cl)cc2Cl)cc1Cl` [PCB 153, polychlorinated biphenyl 153], for which the “Effect on the benefit of n-3 PUFA (EPA/DHA) on development of steatosis (intracellular lipids, oil red O)” value in the series on HepG2 cells is on record as “diminish the beneficial effect”. Moreover, the “Visceral adiposity, hepatic steatosis, and plasma adipokines” value with male C57BL6/J mice is given as “increased”. Also, the “Reduction of hepatic glutathione” value in the series on mice was 6 fold.
